Measurements: patent publication US10144758B2, “Deuterated bile acids” (Metselex, Inc., priority 2013, dated 2018)

Tested on: primary rat hepatocytes
Assay: DCA-induced apoptosis, nuclear fragmentation by Hoechst staining
Type: cell-based
Conditions: for prevention of nuclear fragmentation: 50 μM DCA, 100 μM compound pretreatment, FIG. 7C
Description: Primary rat hepatocytes were isolated from male rats (100-150 grams) by collagenase perfusion (as described by Solá S, et al., 2003, Journal of Biological Chemistry 278: 48831-48838)). Briefly, rats were anesthetized with phenobarbital sodium (100 mg/kg body weight) injected into the peritoneal cavity. After administration of heparin (200 units/kg body weight) in the tail vein, the animal's abdomen was opened and the portal vein exposed and cannulated. The liver was then perfused at 37° C. in situ with a calcium-free Hanks' Balanced Salt Solution (HBSS) for about 10 minutes, and then with 0.05% collagenase type IV in calcium-present HBSS for another 10 minutes. Hepatocyte suspensions were obtained by passing collagenase-digested livers through 125 μm gauze and washing cells in Complete William's E medium (William's E medium, Sigma-Aldrich Corp., St Louis, Mo., USA) supplemented with 26 mM sodium bicarbonate, 23 mM HEPES, 0.01 units/mL insulin, 2 mM L-glutamine, 10 nM dexamethasone, 100 units/mL penicillin, and 10% heat-inactivated fetal bovine serum (Invitrogen Corp., Carlsbad, Calif., USA). Viable primary rat hepatocytes were enriched by low-speed centrifugation at 200 g for 3 minutes. Cell viability was determined by trypan blue exclusion and was typically 80-85%. After isolation, hepatocytes were resuspended in Complete William's E medium and plated on PrimariaTM tissue culture dishes (BD Biosciences, San Jose, Calif., USA) at 5×10^4 cells/cm^2. Cells were maintained at 37° C. in a humidified atmosphere of 5% CO2 for 6 hours to allow attachment. […] Fluorescence was visualized using an Axioskop fluorescence microscope (Carl Zeiss GmbH). Blue-fluorescent nuclei were scored blindly and categorized according to the condensation and staining characteristics of chromatin. […] Five random microscopic fields per sample containing approximately 150 nuclei were counted, and mean values expressed as the percentage of apoptotic nuclei. […] Results are expressed as means±SEM of at least three experiments. *p<0.01 from control; § p<0.05 and †p<0.01 from respective DCA.

| Compound | prevention of nuclear fragmentation | more effective than UDCA at reducing the percentage of apoptotic cells (DCA, Compound 5 versus UDCA) |
| --- | --- | --- |
| 7,8-[^2H]-3α,7α-dihydroxy-5β-cholan-24-oic acid/7-[^2H]-3α,7α-dihydroxy-5β-cholan-24-oic acid [Compound 5] | ~65% | ~15% |
| C[C@H](CCC(=O)O)[C@H]1CC[C@H]2[C@@H]3[C@@H](O)C[C@@H]4C[C@H](O)CC[C@]4(C)[C@H]3CC[C@]12C [UDCA, Ursodeoxycholic acid, reference compound] | ~50% | – |
